PubChem BioAssay AID330 (DTP/NCI, 2004)
“And” between values parts separate entries of the source, which are not always exact repeats. Equal values may be shown once. Toxic doses and inconclusive results are not listed. The calls were made as follows: active = survival T/C of 150% or more; inactive = T/C below 125% in these data. Peptide text beside a SMILES is read from it.

System: P388 leukemia ip, CD2F1 mice, survival T/C
Experiment: NCI In Vivo Anticancer Drug Screen. Data for tumor model P388 Leukemia (intraperitoneal) in CD2F1 (CDF1) mice
Conditions: endpoint: median survival time, higher = longer survival
Outline: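 Mice carrying the transplanted tumor received test compound or vehicle. Survival was recorded in each group, and the value is the treated-group measurement divided by that of the vehicle-treated control group.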

[1] = dose: 50.0 mg/kg/injection, schedule: Q01DX005 (ip), vehicle: Klucel (hydroxypropylcellulose) (HPC)
[2] = dose: 100.0 mg/kg/injection, schedule: Q01DX005 (ip), vehicle: Klucel (hydroxypropylcellulose) (HPC)
[3] = dose: 200.0 mg/kg/injection, schedule: Q01DX005 (ip), vehicle: Klucel (hydroxypropylcellulose) (HPC)
[4] = dose: 60.0 mg/kg/injection, schedule: Q01DX005 (ip), vehicle: saline with Tween-80
[5] = dose: 120.0 mg/kg/injection, schedule: Q01DX005 (ip), vehicle: saline with Tween-80
[6] = dose: 240.0 mg/kg/injection, schedule: Q01DX005 (ip), vehicle: saline with Tween-80
[7] = dose: 100.0 mg/kg/injection, schedule: Q01DX001 (ip), vehicle: Klucel (hydroxypropylcellulose) (HPC)
[8] = dose: 200.0 mg/kg/injection, schedule: Q01DX001 (ip), vehicle: Klucel (hydroxypropylcellulose) (HPC)
[9] = dose: 400.0 mg/kg/injection, schedule: Q01DX001 (ip), vehicle: Klucel (hydroxypropylcellulose) (HPC)
[10] = dose: 50.0 mg/kg/injection, schedule: Q01DX005 (ip), vehicle: saline with Tween-80
[11] = dose: 100.0 mg/kg/injection, schedule: Q01DX005 (ip), vehicle: saline with Tween-80
[12] = dose: 200.0 mg/kg/injection, schedule: Q01DX005 (ip), vehicle: saline with Tween-80
[13] = dose: 50.0 mg/kg/injection, schedule: Q01DX009 (ip), vehicle: saline with Tween-80
[14] = dose: 100.0 mg/kg/injection, schedule: Q01DX009 (ip), vehicle: saline with Tween-80
[15] = dose: 200.0 mg/kg/injection, schedule: Q01DX009 (ip), vehicle: saline with Tween-80

Measured: T/C

O=C1NC(O)c2cc(Cl)ccc2O1 (stereo not given)
inactive: [1] 96 % of control | [2] 97 % of control | [3] 96 % of control

O=C(/C=C\c1ccc(O)c(O)c1)O[C@@H]1C[C@](O)(C(=O)O)C[C@@H](O)[C@H]1O
inactive: dose: 50.0 mg/kg/injection, schedule: Q04DX003 (ip), vehicle: saline 100 % of control | dose: 100.0 mg/kg/injection, schedule: Q04DX003 (ip), vehicle: saline 100 % of control | dose: 200.0 mg/kg/injection, schedule: Q04DX003 (ip), vehicle: saline 105 % of control

CCCCN=C(c1ccc(O)cc1)c1ccc(OC)cc1O
inactive: [4] 108 % of control | [5] 92 % of control | [6] 99 % of control

COc1ccc2c3c1OC1C(OC)(OC)C=C[C@@]4(Br)[C@@H](C2)N(C)CC[C@]314 (stereo not given in full)
inactive: dose: 100.0 mg/kg/injection, schedule: Q01DX001 (ip), vehicle: saline with Tween-80 109 % of control | dose: 200.0 mg/kg/injection, schedule: Q01DX001 (ip), vehicle: saline with Tween-80 106 % of control | dose: 400.0 mg/kg/injection, schedule: Q01DX001 (ip), vehicle: saline with Tween-80 123 % of control

COc1ccc2c(ccc3oc([N+](=O)[O-])cc32)c1
inactive: [1] 116 % of control

CO/N=C1\N=C(C)C(=N)N1c1ccccc1
inactive: [4] 104 % of control | [5] 99 % of control | [6] 107 % of control

OCc1c(-c2ccccc2)nc2n1CCS2
inactive: [7] 102 % of control | [8] 102 % of control | [9] 98 % of control

COc1cc(C2c3cc4c(cc3CCN2C)OCO4)cc(OC)c1OC (stereo not given)
inactive: [10] 106 % of control | [11] 94 % of control

COc1ccc2c(c1OC)C[N+]1([O-])CCc3cc4c(cc3C1C2)OCO4 (stereo not given)
inactive: dose: 0.63 mg/kg/injection, schedule: Q01DX009 (ip), vehicle: distilled water + Tween-80 91 % of control | dose: 1.25 mg/kg/injection, schedule: Q01DX009 (ip), vehicle: distilled water + Tween-80 92 % of control | dose: 2.5 mg/kg/injection, schedule: Q01DX009 (ip), vehicle: distilled water + Tween-80 92 % of control | dose: 5.0 mg/kg/injection, schedule: Q01DX009 (ip), vehicle: distilled water + Tween-80 90 % of control | dose: 10.0 mg/kg/injection, schedule: Q01DX009 (ip), vehicle: distilled water + Tween-80 97 % of control | dose: 20.0 mg/kg/injection, schedule: Q01DX009 (ip), vehicle: distilled water + Tween-80 106 % of control

COc1ccc(CC(=O)c2ccc3c(c2O)C=CC(C)(C)O3)cc1OC
inactive: [10] 98 % of control | [11] 99 % of control | [12] 89 % of control

O=C1NC(Cc2ccccc2)C(=O)N2CSCC12 (stereo not given)
inactive: [7] 94 % of control | [8] 99 % of control | [9] 105 % of control

CO/N=C/c1ccccc1C(=O)O
inactive: [1] 100 % of control | [2] 95 % of control | [3] 99 % of control

CC1(C)CC(=O)C(CSCS)=C(O)C1
inactive: [7] 114 % of control | [8] 99 % of control | [9] 92 % of control

O=c1cc([N+](=O)[O-])c2c([nH]1)CCC2
inactive: [10] 97 % of control | [11] 94 % of control | [12] 90 % of control

COC(=O)[C@]12CCC(C)(C)C[C@H]1C1=CC[C@@H]3[C@@]4(C)C[C@H](O)[C@H](OC5OC(CO)C(O)C(O)C5O)C(CO)(CO)[C@@H]4CC[C@@]3(C)[C@]1(C)C[C@H]2O (stereo not given in full)
inactive: dose: 2.5 mg/kg/injection, schedule: Q01DX005 (ip), vehicle: Klucel (hydroxypropylcellulose) (HPC) 94 % of control | dose: 5.0 mg/kg/injection, schedule: Q01DX005 (ip), vehicle: Klucel (hydroxypropylcellulose) (HPC) 95 % of control | dose: 10.0 mg/kg/injection, schedule: Q01DX005 (ip), vehicle: Klucel (hydroxypropylcellulose) (HPC) 100 % of control | dose: 20.0 mg/kg/injection, schedule: Q01DX005 (ip), vehicle: Klucel (hydroxypropylcellulose) (HPC) 101 % of control

Cc1ccc2[nH]c(=S)[nH]c2c1
inactive: dose: 25.0 mg/kg/injection, schedule: Q01DX009 (ip), vehicle: saline with Tween-80 95 % of control | [13] 94 % of control | [14] 96 % of control | [15] 93 % of control

O=C1OCC/C1=C\N1CCCCC1
inactive: dose: 60.0 mg/kg/injection, schedule: Q01DX005 (ip), vehicle: saline 102 % of control | dose: 120.0 mg/kg/injection, schedule: Q01DX005 (ip), vehicle: saline 100 % of control | dose: 240.0 mg/kg/injection, schedule: Q01DX005 (ip), vehicle: saline 106 % of control

Cn1c2c(c(=O)c3c4c(=O)c5c([nH]c4ccc31)CCCC5)CCCC2
inactive: dose: 100.0 mg/kg/injection, schedule: Q04DX003 (ip), vehicle: saline with Tween-80 100 % of control | dose: 200.0 mg/kg/injection, schedule: Q04DX003 (ip), vehicle: saline with Tween-80 94 % of control | dose: 400.0 mg/kg/injection, schedule: Q04DX003 (ip), vehicle: saline with Tween-80 86 % of control

COC(=O)[C@H](NC(=O)c1ccccc1)[C@@H](O)/C=C/c1ccccc1
inactive: [10] 94 % of control | [12] 87 % of control

CCCCCCCC[As](CCCCCCCC)SC1OC(COC(C)=O)C(OC(C)=O)C(OC(C)=O)C1OC(C)=O (stereo not given)
inactive: dose: 50.0 mg/kg/injection, schedule: Q01DX009 (ip), vehicle: Klucel (hydroxypropylcellulose) (HPC) 102 % of control | dose: 100.0 mg/kg/injection, schedule: Q01DX009 (ip), vehicle: Klucel (hydroxypropylcellulose) (HPC) 90 % of control

CC1(C)CC(OC(=O)Oc2c3ccccc3c3ccc4cccc5ccc2c3c54)CC(C)(C)N1O
inactive: [13] 97 % of control | [14] 97 % of control | [15] 103 % of control

CCOC(=O)c1c(C(=O)Nc2ccccc2)c(-c2ccccc2)n(NC(N)=O)c1C
inactive: [10] 104 % of control | [11] 105 % of control | [12] 98 % of control

C/C(=N\O)C1CCN(Cc2ccccc2)CC1
inactive: dose: 12.5 mg/kg/injection, schedule: Q01DX005 (ip), vehicle: Klucel (hydroxypropylcellulose) (HPC) 105 % of control | dose: 25.0 mg/kg/injection, schedule: Q01DX005 (ip), vehicle: Klucel (hydroxypropylcellulose) (HPC) 110 % of control | [1] 100 % of control and 105 % of control

CCOC(=O)C1C2(C(C)=O)C(C)=Nc3c(C#N)cnn3C12C(=O)OCC (stereo not given)
inactive: dose: 6.25 mg/kg/injection, schedule: Q01DX005 (ip), vehicle: saline with Tween-80 105 % of control | dose: 12.5 mg/kg/injection, schedule: Q01DX005 (ip), vehicle: saline with Tween-80 100 % of control | dose: 25.0 mg/kg/injection, schedule: Q01DX005 (ip), vehicle: saline with Tween-80 104 % of control | [11] 92 % of control | [12] 91 % of control

CC(C)CC(N)C(=O)NC(C)C(=O)NC(CC(C)C)C(=O)O (stereo not drawn) (H-Leu-Ala-Leu-OH; configuration not given here)
inactive: dose: 25.0 mg/kg/injection, schedule: Q01DX005 (ip), vehicle: saline 101 % of control | dose: 50.0 mg/kg/injection, schedule: Q01DX005 (ip), vehicle: saline 102 % of control | dose: 100.0 mg/kg/injection, schedule: Q01DX005 (ip), vehicle: saline 101 % of control | dose: 200.0 mg/kg/injection, schedule: Q01DX005 (ip), vehicle: saline 100 % of control

CN(C)CCC(=O)c1cccs1
inactive: dose: 50.0 mg/kg/injection, schedule: Q01DX009 (ip), vehicle: saline 107 % of control | dose: 100.0 mg/kg/injection, schedule: Q01DX009 (ip), vehicle: saline 105 % of control
